“Also recorded” adds a separate entry of the source. Ends that are not written are not given here.
Key:
CD1-wildtype mice = assay: Mouse toxicity studies (weight, blood count, serum chemistries); format: in vivo; settings: for alkaline phosphatase level, individual mouse: female
Method: Mouse Toxicity Studies: Sixty CD1-wildtype mice (1:1 male to female ratio) were obtained from Charles River and divided into 6 groups of 10, 5 females and 5 males each. Ten control mice were injected with 1X PBS. Treated mice were injected intravenously with a single dose of CTP 150 μg/Kg. Groups of 10 treated mice (5 male, 5 female) were euthanized on day 0 (immediately after injection), 1, 2, 7, and 14 post-injection using inhalational CO2. After euthanasia, the chest cavity was opened, and blood drawn via cardiac puncture for complete blood count and serum chemistries. Following the blood draw, the right atrium was nicked and the whole animal perfusion fixed using 3 mL of formalin injected into the left ventricular apex. The control group was euthanized on day 2. A complete blood count, metabolic profile, and thyroid studies were performed.

CAV1.2 = CAV1.2 (Homo sapiens, UniProt Q13936); assay: in vitro; format: cell-based; settings: blocker; FLIPR Tetra; up to 30 µM; read-out: RC50 (the source's name)
Sequence of CAV1.2 (Q13936 whole entry): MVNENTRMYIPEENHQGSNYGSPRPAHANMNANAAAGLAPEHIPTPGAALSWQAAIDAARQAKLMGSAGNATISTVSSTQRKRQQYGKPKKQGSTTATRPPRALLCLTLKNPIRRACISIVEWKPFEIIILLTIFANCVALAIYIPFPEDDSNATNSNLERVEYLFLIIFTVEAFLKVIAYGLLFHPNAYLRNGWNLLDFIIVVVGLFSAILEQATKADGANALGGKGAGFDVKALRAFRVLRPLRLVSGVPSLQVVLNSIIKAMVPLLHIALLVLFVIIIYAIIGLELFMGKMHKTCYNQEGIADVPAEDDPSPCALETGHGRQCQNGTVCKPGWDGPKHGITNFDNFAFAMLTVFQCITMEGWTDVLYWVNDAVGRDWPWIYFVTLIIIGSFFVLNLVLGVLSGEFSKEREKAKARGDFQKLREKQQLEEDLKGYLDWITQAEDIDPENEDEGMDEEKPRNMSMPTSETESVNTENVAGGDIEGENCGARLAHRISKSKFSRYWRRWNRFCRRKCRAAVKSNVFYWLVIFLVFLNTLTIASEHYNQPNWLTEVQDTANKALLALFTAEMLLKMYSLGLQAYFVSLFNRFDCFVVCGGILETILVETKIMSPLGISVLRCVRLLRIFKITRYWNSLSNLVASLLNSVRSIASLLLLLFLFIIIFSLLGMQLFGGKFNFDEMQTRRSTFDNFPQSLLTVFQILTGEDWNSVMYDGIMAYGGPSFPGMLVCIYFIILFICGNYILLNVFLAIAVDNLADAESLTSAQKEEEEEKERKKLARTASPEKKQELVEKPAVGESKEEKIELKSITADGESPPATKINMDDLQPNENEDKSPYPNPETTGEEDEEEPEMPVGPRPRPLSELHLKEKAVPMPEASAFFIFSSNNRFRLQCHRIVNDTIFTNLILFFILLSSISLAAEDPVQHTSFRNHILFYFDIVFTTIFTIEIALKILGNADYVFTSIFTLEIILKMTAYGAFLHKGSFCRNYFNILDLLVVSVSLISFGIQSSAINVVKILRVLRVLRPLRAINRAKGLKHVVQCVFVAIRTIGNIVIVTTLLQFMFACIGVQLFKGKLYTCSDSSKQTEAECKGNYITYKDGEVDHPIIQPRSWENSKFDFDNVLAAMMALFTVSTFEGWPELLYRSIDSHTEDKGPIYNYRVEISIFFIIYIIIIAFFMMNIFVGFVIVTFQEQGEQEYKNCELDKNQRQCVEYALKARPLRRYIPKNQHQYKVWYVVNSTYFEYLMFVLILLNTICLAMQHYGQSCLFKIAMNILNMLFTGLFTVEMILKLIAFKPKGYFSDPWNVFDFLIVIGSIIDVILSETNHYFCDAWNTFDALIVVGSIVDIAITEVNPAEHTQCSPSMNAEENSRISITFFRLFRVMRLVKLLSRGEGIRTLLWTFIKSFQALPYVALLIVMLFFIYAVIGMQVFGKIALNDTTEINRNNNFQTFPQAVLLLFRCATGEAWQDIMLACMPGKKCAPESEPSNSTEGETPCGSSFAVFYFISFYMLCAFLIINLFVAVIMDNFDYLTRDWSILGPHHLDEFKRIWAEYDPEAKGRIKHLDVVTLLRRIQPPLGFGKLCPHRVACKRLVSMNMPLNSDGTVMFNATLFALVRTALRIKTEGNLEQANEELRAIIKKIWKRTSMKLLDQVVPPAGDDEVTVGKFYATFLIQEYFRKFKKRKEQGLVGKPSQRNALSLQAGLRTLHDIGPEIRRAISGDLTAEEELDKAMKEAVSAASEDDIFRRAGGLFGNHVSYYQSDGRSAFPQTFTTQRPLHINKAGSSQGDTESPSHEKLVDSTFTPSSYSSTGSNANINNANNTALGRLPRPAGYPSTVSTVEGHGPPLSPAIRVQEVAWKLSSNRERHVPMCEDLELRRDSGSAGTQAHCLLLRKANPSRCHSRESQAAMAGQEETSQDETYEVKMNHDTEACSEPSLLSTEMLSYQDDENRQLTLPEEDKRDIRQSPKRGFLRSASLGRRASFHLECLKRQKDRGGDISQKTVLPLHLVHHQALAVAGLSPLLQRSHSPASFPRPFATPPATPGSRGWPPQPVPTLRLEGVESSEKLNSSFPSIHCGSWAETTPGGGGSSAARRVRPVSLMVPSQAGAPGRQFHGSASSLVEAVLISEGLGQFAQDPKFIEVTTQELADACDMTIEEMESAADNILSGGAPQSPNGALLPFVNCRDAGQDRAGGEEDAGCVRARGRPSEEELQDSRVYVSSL
Sequence of CAV1.2 (Q08289 whole entry partner): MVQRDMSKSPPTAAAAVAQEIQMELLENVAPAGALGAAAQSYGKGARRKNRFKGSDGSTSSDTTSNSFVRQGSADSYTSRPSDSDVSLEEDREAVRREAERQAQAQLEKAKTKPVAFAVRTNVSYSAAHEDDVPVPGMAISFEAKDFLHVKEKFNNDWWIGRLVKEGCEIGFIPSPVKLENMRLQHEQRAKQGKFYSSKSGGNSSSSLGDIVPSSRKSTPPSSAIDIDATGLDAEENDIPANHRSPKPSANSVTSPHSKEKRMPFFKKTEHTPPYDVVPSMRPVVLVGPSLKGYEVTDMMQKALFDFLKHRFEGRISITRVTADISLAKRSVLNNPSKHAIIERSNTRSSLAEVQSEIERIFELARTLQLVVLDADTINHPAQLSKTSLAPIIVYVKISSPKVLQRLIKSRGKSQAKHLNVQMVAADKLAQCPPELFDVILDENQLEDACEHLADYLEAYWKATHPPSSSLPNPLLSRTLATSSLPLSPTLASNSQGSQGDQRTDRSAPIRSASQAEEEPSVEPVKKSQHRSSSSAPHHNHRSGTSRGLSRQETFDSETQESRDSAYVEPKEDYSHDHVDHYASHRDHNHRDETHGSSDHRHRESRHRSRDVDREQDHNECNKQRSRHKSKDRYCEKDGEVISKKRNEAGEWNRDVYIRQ
Sequence of CAV1.2 (P54289 25-956 partner limits assumed): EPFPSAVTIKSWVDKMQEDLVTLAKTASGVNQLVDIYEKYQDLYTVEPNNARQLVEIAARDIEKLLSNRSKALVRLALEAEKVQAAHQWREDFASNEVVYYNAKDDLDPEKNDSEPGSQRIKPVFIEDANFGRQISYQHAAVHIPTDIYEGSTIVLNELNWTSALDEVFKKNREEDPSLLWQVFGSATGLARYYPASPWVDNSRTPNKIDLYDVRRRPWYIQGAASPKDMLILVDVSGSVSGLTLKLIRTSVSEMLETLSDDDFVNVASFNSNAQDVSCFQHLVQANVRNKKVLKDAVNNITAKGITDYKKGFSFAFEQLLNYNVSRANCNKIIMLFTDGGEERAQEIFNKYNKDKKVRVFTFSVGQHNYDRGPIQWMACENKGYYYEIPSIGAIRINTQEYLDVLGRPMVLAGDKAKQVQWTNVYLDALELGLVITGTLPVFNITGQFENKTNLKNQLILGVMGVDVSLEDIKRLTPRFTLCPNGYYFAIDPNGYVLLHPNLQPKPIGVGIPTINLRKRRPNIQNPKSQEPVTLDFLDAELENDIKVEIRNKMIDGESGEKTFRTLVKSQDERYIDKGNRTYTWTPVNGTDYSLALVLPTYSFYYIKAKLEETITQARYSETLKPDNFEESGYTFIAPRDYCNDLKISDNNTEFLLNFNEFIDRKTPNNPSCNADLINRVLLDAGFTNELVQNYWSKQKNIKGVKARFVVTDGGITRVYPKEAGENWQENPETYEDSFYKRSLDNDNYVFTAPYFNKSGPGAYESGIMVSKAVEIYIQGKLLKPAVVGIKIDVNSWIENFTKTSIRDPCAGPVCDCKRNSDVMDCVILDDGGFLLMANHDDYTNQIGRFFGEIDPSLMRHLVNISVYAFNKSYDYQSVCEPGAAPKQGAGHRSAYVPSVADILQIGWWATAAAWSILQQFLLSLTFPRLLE
Sequence of CAV1.2 (P54289 957-1103 partner limits assumed): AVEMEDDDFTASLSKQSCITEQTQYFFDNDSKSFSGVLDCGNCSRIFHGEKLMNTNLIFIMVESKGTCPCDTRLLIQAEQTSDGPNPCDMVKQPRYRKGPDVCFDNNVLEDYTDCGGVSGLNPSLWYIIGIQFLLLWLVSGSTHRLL
Method: Ion Channel Assays: Cell lines were grown, plated, and loaded with 1× loading buffer containing 1× dye and 2.5 mM freshly prepared probenecid. Assays were performed, and activity was measured using a FLIPR Tetra. Percent of activation and percent of inhibition were calculated to determine agonist and antagonist activity, respectively. […]
The KINOMEscan screening platform employs a novel and propri- Membrane Potential Assay etary active site-directed competition binding assay to quantitatively The FLIPR® Membrane Potential Assay Kit is used which utilizes a pro-measure interactions between test compounds and the kinases. prietary fluorescent indicator dye in combination with a quencher to This robust and reliable assay technology affords investigators the reflect real-time membrane potential changes associated with ion ability to extensively annotate compounds with accurate, precise channel activation and ion transporter proteins. […]
Compounds that bind the kinase active site and directly (sterically) be monitored within a single experiment. […]
a quantitative, precise and ultra-sensitive qPCR method that detects the receptor signals release of intracellular calcium, which results in the associated DNA label (D). In a similar manner, dissociation con- an increase of dye fluorescence. […]
Neurotransmitter Transporter Uptake Assay spectrophotometric, fluorometric, and luminescent readouts. […]

[1] = tested on: CD1, wild type, adult mice; assay: Cardiac MRI pre- and post-CTP injection; format: in vivo, mouse; settings: male or female mice; immediately after CTP 150 µg/Kg i.v.; vs baseline
Method: Cardiac Function Studies, Pre- and Post-Injections: Six CD1, wild type, 6–8-week-old adult mice were obtained from the Charles River and used for cardiac MRI studies. Mice were weighed, anesthetized with 2.5% isoflurane, and ear tags removed before being inserted into the MRI scanner. A baseline cardiac MRI was performed, followed by intravenous CTP injection (150 µg/Kg). Post-injection, a second cardiac MRI was performed.

HEK-Kv4.3/KChIP2 = HEK-Kv4.3/KChIP2 (Homo sapiens, UniProt Q9NS61+Q9UK17); settings: CTP 0.1 to 30 µM; HEK cells; step to 40mV; 0.1% Pluronic F-68
Sequence of HEK-Kv4.3/KChIP2 (Q9UK17 whole entry): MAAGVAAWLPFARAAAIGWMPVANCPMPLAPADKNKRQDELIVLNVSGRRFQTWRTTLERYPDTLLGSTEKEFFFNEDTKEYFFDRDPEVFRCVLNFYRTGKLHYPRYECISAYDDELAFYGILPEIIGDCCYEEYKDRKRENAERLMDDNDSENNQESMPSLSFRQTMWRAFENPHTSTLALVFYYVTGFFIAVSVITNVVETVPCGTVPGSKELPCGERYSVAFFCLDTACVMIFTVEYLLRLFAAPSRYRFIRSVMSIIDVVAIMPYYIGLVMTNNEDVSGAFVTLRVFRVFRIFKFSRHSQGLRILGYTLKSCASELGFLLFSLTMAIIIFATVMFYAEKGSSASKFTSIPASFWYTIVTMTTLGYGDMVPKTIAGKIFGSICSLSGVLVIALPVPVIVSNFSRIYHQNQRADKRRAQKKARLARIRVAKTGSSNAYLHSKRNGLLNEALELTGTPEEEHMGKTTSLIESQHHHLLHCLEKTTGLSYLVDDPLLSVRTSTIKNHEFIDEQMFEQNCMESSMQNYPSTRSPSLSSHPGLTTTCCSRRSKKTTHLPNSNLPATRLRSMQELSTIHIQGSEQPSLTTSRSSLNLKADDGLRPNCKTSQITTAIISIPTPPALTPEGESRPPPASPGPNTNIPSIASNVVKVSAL
Sequence of HEK-Kv4.3/KChIP2 (Q9NS61 whole entry partner): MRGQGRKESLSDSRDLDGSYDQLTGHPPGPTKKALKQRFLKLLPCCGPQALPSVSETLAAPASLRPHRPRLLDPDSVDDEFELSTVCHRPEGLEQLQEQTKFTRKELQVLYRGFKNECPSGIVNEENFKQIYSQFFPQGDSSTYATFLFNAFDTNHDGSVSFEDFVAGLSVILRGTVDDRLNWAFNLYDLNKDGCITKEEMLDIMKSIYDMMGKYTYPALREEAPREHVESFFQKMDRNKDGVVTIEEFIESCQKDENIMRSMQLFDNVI

[2] = female mice, CTP 150 μg/Kg single i.v., Day 0, recovered by Day 1
[3] = female mice, CTP 150 μg/Kg single i.v., vs control
[4] = male mice, CTP 150 μg/Kg single i.v., vs control

**Q.** Which toxicity signals overall (CD1-wildtype mice; CTP 150 µg/Kg single dose, except borderline alkaline phosphatase increase in female mice) does the source give for APWHLSSQYSRT [CTP] here?
**A.** no significant toxicity signals

**Q.** What about the body weight (CD1-wildtype mice; control vs injected mice of each sex, CTP 150 μg/Kg single i.v., two-week course) of the same sequence?
**A.** no significant difference

**Q.** And the “mean alkaline phosphatase level” value (CD1-wildtype mice; female mice, any of the groups, upper limit of normal not crossed, CTP 150 μg/Kg single i.v.)?
**A.** ≤ 140 IU/L

**Q.** What about the alkaline phosphatase recovery (CD1-wildtype mice; female mice, CTP 150 μg/Kg single i.v.) of the same sequence?
**A.** returning to baseline by Day 2

**Q.** And the platelet count (CD1-wildtype mice; [2])?
**A.** decreased on Day 0; also recorded: significant decrease

**Q.** What about the “white blood cell count” value (CD1-wildtype mice; [2]) of the same sequence?
**A.** decreased on Day 0; also recorded: significant decrease

**Q.** And the bilirubin (CD1-wildtype mice; female mice, CTP 150 μg/Kg single i.v., only on Day 0, recovered by Day 1)?
**A.** significant decrease

**Q.** And the alanine aminotransferase (CD1-wildtype mice; [3])?
**A.** no significant difference

**Q.** And the alkaline phosphatase change (CD1-wildtype mice; [3])?
**A.** borderline increase in alkaline phosphatase levels in female mice on Days 0 and 1, with recovery to control levels by Day 2; also recorded: rise in alkaline phosphatase

**Q.** What about the aspartate aminotransferase (CD1-wildtype mice; [3]) of the same sequence?
**A.** no significant difference

**Q.** And the blood urea nitrogen (CD1-wildtype mice; [3])?
**A.** no significant difference

**Q.** What about the creatinine (CD1-wildtype mice; [3]) of the same sequence?
**A.** no significant difference

**Q.** And the hemoglobin (CD1-wildtype mice; [3])?
**A.** no significant difference

**Q.** And the “alkaline phosphatase level, individual mouse” value (CD1-wildtype mice; day 0, first of two borderline elevated mice, CTP 150 μg/Kg single i.v.)?
**A.** 151 IU/L

**Q.** What about the “alkaline phosphatase level, individual mouse” value (CD1-wildtype mice; day 0, second of two borderline elevated mice, CTP 150 μg/Kg single i.v.) of the same sequence?
**A.** 166 IU/L

**Q.** What about the calcium levels (CD1-wildtype mice; male mice, CTP 150 μg/Kg single i.v., normalizing at later time-points) of the same sequence?
**A.** increased marginally only on Day 0

**Q.** What about the alanine aminotransferase (CD1-wildtype mice; [4]) of the same sequence?
**A.** no difference

**Q.** What about the alkaline phosphatase (CD1-wildtype mice; [4]) of the same sequence?
**A.** no difference

**Q.** And the aspartate aminotransferase (CD1-wildtype mice; [4])?
**A.** no difference

**Q.** What about the blood urea nitrogen (CD1-wildtype mice; [4]) of the same sequence?
**A.** decrease; also recorded: significantly lower on Days 0–2

**Q.** What about the creatinine (CD1-wildtype mice; [4]) of the same sequence?
**A.** decrease; also recorded: significantly lower on Days 0–2

**Q.** What about the hemoglobin (CD1-wildtype mice; [4]) of the same sequence?
**A.** no difference

**Q.** What about the phosphorous levels (CD1-wildtype mice; [4]) of the same sequence?
**A.** no difference

**Q.** What about the platelet count (CD1-wildtype mice; [4]) of the same sequence?
**A.** no difference

**Q.** What about the total bilirubin (CD1-wildtype mice; [4]) of the same sequence?
**A.** no difference

**Q.** What about the “white blood cell count” value (CD1-wildtype mice; [4]) of the same sequence?
**A.** no difference

**Q.** And the IC50 (CAV1.2)?
**A.** > 30 µM

**Q.** What about the cardiac output [1] of the same sequence?
**A.** no significant change

**Q.** What about the ejection fraction [1] of the same sequence?
**A.** no significant change

**Q.** And the heart rate [1]?
**A.** no significant change

**Q.** What about the left ventricular mass [1] of the same sequence?
**A.** no significant change

**Q.** And the “Estimated IC50” value (HEK-Kv4.3/KChIP2)?
**A.** N/C (Not calculable, inhibition >25% was not observed.)
